Consider eleven molecules from patent US20200016058A1, “HORNY LAYER FUNCTION IMPROVING AGENT” (Ajinomoto Co., Inc., priority 2017, published 2020).

Where a SMILES comes first, the peptide text is derived from it.

The test system of assay [1] is filaggrin. The experiment in a line: Gene expression test using normal human epidermal keratinocytes (RT-PCR), filaggrin. The conditions noted are these: Keratinocyte, 48 hours, relative value to control, read-out: FLG (filaggrin) gene expression amount. Type of assay: cell-based. The protocol: (§1) Normal human epidermal keratinocytes (Kurabo Industries Ltd.) were cultured with HuMedia KG2 (Kurabo Industries Ltd.) at 37° C. and 5% CO2 under saturated vapor. Cells that have become confluent were seeded in a 6-well plate with a seeding density of 3.0×10^5 (cells/well).
(§2) For each evaluation sample, each D-amino acid adjusted in the culture medium so as to be 100 μM or 500 μM was used. On the next day of seeding, each evaluation sample was adjusted to be 100 μM or 500 μM, and each well culture medium was exchanged. Culturing was performed for 48 hours, RNA was extracted from the cells using RN easy mini kit (Qiagen), which was synthesized into cDNA using High-Capacity cDNA Reverse Transcription Kit with RNase Inhibitor (Thermo Fisher). With this cDNA as a template, a sample added group and a control group were compared with each other by the RT-PCR method (7500 fast system (Thermo Fisher)) to evaluate gene expression amounts of filaggrin, involucrin, loricrin, keratin 10, and transglutaminase 1. In Table 4, FLG, IVL, K10, LOR, and TGM indicate filaggrin, involucrin, keratin 10, loricrin, and transglutaminase 1, respectively.

Assay [2] has as its system transglutaminase 1. Put plainly: Gene expression test using normal human epidermal keratinocytes (RT-PCR), transglutaminase 1. The assay is classed as cell-based. The conditions noted are these: 48 hours, relative value to control. As for the experimental part:
as §1, §2

The test system of assay [3] is filaggrin, involucrin, loricrin, keratin 10, and transglutaminase 1. The experiment in a line: Gene expression test using normal human epidermal keratinocytes, text summary over the target genes. The conditions noted are these: 100 μM or 500 μM, summary of Table 4; for expression amounts of the respective target genes: all five target genes. Type of assay: cell-based. The protocol: as §1, §2

The test system of assay [4] is laminin 332. The conditions noted are these: reported in WO 2011/040082; cited from earlier work.
In assay [5] the test system is keratin 10. The experiment in a line: Gene expression test using normal human epidermal keratinocytes (RT-PCR), keratin 10. The assay is classed as cell-based. The note with it: Keratinocyte, 48 hours, relative value to control, read-out: K10 (keratin 10) gene expression amount. As for the experimental part: as §1, §2
The test system of assay [6] is involucrin. The experiment in a line: Gene expression test using normal human epidermal keratinocytes (RT-PCR), involucrin. The conditions noted are these: Keratinocyte, 48 hours, relative value to control, read-out: IVL (involucrin) gene expression amount. The assay is classed as cell-based. The protocol: as §1, §2
Assay [7] relates to loricrin. The experiment in a line: Gene expression test using normal human epidermal keratinocytes (RT-PCR), loricrin. Type of assay: cell-based. The note with it: 48 hours, relative value to control. The protocol: as §1, §2
For assay [8] the following is noted: orally administered; cited filing; cited from earlier work.
The conditions of assay [9]: JP 2012-006870; determined only by the subjectivity of subjects; cited from earlier work.
Assay [10] deals with filaggrin, involucrin, transglutaminase 1, keratin 10, and loricrin. The conditions noted are these: cited from earlier work.

For the molecule `C[C@@H](N)C(=O)O` [D-Ala, D-alanine], the values for the fold induction at 100 µM in assay [1], in assay [5] and in assay [6] were 1.23, 1.47 and 1.28, respectively. Besides, the figures for the fold induction at 500 µM in [1], in [5] and in assay [6] were 1.18, 1.21 and 1.15, respectively. The “TGM (transglutaminase 1) gene expression amount” value (“TGM” for short) in [2] (100 μM) is 1.20. In addition, in [3], the “expression amounts of the respective target genes of filaggrin, involucrin, keratin 10, and transglutaminase 1” value was “increases”. Besides, the “laminin 332 production promotion effect” value in assay [4] is on record as “promote the production of laminin 332”.
As to `NC(=O)C[C@@H](N)C(=O)O` [D-Asn, D-asparagine], the fold induction at 500 µM in assay [1] was determined as 1.55; in [5], 1.21; in assay [6], 1.34. Also, the “LOR (loricrin) gene expression amount” value in assay [7] (500 μM) is on record as 1.80. The “expression amounts of the respective target genes of filaggrin, involucrin, keratin 10, and loricrin” value in assay [3] is given as “increases”.
On to `N[C@H](CC(=O)O)C(=O)O` [D-Asp, D-aspartic acid], for which the results for the fold induction at 100 µM in assay [1], in assay [5] and in assay [6] were 1.35, 2.43 and 1.49, respectively. For the same molecule, the fold induction at 500 µM in assay [1] is 1.45; in assay [5], 2.1; in assay [6], 1.42. The “TGM” value is reported as 1.13 in [2] (100 μM) and 1.20 in [2] (500 μM). The “LOR (loricrin) gene expression amount” value came to 2.34 in assay [7] (100 μM) and 2.10 in assay [7] (500 μM). For the same molecule, the “expression amounts of the respective target genes” value in assay [3] is “increases”. In addition, the “laminin 332 production promotion effect” value in assay [4] is on record as “not expressed”.
Regarding `N[C@H](CCC(=O)O)C(=O)O` [D-Glu, D-glutamic acid], the values for the fold induction at 500 µM in assay [1], in assay [5] and in assay [6] were 1.69, 1.25 and 1.34, respectively. The “TGM” value in [2] (500 μM) is 1.13. Further, the “LOR (loricrin) gene expression amount” value in [7] (500 μM) came out at 2.07. Moreover, the “expression amounts of the respective target genes” value in [3] is on record as “increases”. Moreover, the TEWL value result in assay [8] was “reduces”.
Consider `NCCCC[C@@H](N)C(=O)O` [D-Lys, D-lysine], for which the fold induction at 100 µM in assay [1] was determined as 1.48; in assay [5] it was 1.35; in [6] it was 1.27. Besides, the fold induction at 500 µM was 1.29 in assay [1], 2.16 in assay [5] and 1.72 in [6]. Moreover, the “TGM” value in assay [2] (100 μM) came out at 1.12. The results for the “LOR (loricrin) gene expression amount” value in [7] (100 μM) and in assay [7] (500 μM) were 2.02 and 1.39, respectively. Moreover, in assay [3], the “expression amounts of the respective target genes” value is on record as “increases”. In addition, in assay [9], the moisture retaining effect entry is recorded as “expressed”.
Consider `N[C@H](Cc1ccccc1)C(=O)O` [D-Phe, D-phenylalanine], for which the fold induction at 500 µM in assay [1] is 1.52; in assay [5], 1.32; in assay [6], 1.32. The “TGM” value in assay [2] (500 μM) is 1.26. For the same molecule, the “LOR (loricrin) gene expression amount” value in assay [7] (500 μM) came out at 1.78. In [3], the “expression amounts of the respective target genes” value is given as “increases”.
With `N[C@H](Cc1c[nH]c2ccccc12)C(=O)O` [D-Trp, D-tryptophan], the fold induction at 100 µM in assay [1] worked out at 1.77; in [5], 2.44; in [6], 2.05. Further, the results for the fold induction at 500 µM in assay [1], in [5] and in assay [6] were 3.3, 3.43 and 2.43, respectively. Further, the “TGM” value turned out to be 1.42 in assay [2] (100 μM) and 1.50 in assay [2] (500 μM). Further, the figures for the “LOR (loricrin) gene expression amount” value in [7] (100 μM) and in assay [7] (500 μM) were 1.71 and 3.45, respectively. Also, the “expression amounts of the respective target genes” value in [3] was “increases”.
Turning to `CC[C@H](C)[C@@H](N)C(=O)O` [D-allo-Ile, D-allo-isoleucine], the fold induction at 100 µM in assay [1] is 1.3; in [5] it was 1.31; in assay [6] it was 1.18. In addition, the fold induction at 500 µM in [1] amounted to 1.21; in assay [5], 1.41; in assay [6], 1.13. The “TGM” value in assay [2] (500 μM) is given as 1.27. For the same molecule, the “LOR (loricrin) gene expression amount” value in assay [7] (100 μM) was found to be 1.31. In addition, in assay [3], the “expression amounts of the respective target genes” value was “increases”.
As to `O=C(O)[C@H]1C[C@H](O)CN1` [D-hydroxyproline, reference compound], the “laminin 332 production promotion effect” value in assay [4] is “promote the production of laminin 332”.
Regarding `NCCCC[C@H](N)C(=O)O` [L-lysine, reference compound], the moisture retaining effect result in assay [9] is recorded as “expressed”.
For the molecule `NCC(=O)N1CCC[C@H]1C(=O)O` [glycylproline] (H-Gly-Pro-OH), the “expression promotion action of moisture retention-related proteins such as filaggrin” value in [10] (applicant's assessment of the prior art) is “weak”. Further, the “expression of filaggrin, involucrin, transglutaminase 1, keratin 10, and loricrin” value in assay [10] (reported in WO 2014/175001 and JP 2012-232920) is “promoted”.
